Here are results for 23 compounds from US4798843A, “2-mercaproimidazole dopamine-β-hydroxylase inhibitors” (SmithKline Beckman Corporation, priority 1987, dated 1989).

In series [1] the target is T1, DBH (Homo sapiens, UniProt P09172).
T1 sequence (P09172 1-617): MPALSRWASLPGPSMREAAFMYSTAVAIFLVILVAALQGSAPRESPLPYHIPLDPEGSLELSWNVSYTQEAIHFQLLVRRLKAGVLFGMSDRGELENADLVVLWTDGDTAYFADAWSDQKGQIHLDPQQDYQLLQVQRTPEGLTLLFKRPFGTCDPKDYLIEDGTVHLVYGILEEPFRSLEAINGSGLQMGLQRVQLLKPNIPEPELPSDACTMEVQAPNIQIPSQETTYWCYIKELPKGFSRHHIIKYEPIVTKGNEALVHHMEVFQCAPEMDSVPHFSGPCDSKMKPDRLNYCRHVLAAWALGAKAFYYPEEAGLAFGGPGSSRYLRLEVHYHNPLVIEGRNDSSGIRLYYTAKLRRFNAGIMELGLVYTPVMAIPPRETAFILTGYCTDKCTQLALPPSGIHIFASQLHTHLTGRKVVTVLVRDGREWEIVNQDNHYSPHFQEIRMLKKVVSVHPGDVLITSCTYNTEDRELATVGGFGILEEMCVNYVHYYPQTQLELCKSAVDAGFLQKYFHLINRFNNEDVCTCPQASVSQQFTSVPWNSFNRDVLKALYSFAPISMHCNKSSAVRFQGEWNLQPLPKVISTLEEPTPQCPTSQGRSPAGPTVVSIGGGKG
The following applies: cited from earlier work.

The target in series [2] is T2, DBH (Bos taurus, UniProt P15101).
T2 sequence (P15101 1-610): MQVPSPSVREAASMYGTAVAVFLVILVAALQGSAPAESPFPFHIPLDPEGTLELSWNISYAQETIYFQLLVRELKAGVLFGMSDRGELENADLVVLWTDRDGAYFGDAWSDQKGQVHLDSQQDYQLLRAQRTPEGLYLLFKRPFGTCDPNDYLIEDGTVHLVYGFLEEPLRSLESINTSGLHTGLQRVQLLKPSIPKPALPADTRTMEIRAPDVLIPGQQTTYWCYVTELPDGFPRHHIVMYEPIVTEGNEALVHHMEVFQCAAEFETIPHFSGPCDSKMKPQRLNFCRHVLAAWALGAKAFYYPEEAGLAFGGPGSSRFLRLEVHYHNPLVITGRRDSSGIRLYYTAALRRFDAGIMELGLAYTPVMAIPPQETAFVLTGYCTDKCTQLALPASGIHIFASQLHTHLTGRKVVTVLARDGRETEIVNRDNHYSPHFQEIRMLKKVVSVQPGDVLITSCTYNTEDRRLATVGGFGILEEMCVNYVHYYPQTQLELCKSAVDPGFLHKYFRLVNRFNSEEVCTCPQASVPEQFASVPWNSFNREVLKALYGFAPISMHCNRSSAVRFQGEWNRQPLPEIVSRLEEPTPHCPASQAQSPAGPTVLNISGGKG
Briefly: in vitro DBH inhibition, conversion of tyramine to octopamine in the presence of DBH (spectrophotometric at 330 nm). The conditions noted are these: for IC50: molar concentration of compound at which DBH activity was halved; for DBH inhibition: @ 10^-4 (molar concentration). In kind it is biochemical. As to the method: Listed in Table I are Formula II compounds that were tested for in vitro DBH inhibition by a standard procedure for assaying conversion of tyramine to octopamine in the presence of DBH. J. J. Pisano, et al., Biochim. Biophys. Acta, 43, 566-568 (1960). Octopamine was assayed following sodium periodate oxidation to p-hydroxybenzaldehyde by measuring spectrophotometric absorbance at 330 nm. In Table I, inhibition is given in molar concentration of compound at which DBH activity was halved (IC50). Fusaric acid, by this test has an IC50 of 8×10^-7 M.

A short description of series [3]: mean arterial blood pressure in spontaneously hypertensive rats. In kind it is in vivo. The following applies: 50 mg/kg intraperitoneally. As to the method:
Further, spontaneously hypertensive rats were treated with 5-benzyl-2-mercaptoimidazole at a dose of 50 mg/kg intraperitoneally, and mean arterial blood pressure was monitored for 260 minutes using indwelling cannulae in the tail arteries. […] The maximal blood pressure reduction was approximately 25 mmHg.

The conditions of series [4]: Ehrreich et al.; cited from earlier work.
The conditions of series [5]: Teresawa et al.; cited from earlier work.

For `O=C(O)c1ccc(CCCCCl)cn1` [5 (4 chlorobutyl) picolinic acid], at DBH [1], the “DBH inhibition (in words)” value is given as “inhibit DBH”.

One may read the IC50 as the concentration that inhibits the measured activity by half. In the case of `Oc1ccc(CCc2cnc(S)[nH]2)cc1` [5-(2-(4-Hydroxyphenyl)ethyl)-2-mercaptoimidazole], at DBH [2], the IC50 stood at 400 µM.

As to `COc1ccc(CCc2cnc(S)[nH]2)cc1` [5-(2-(4-Methoxyphenyl)ethyl)-2-mercaptoimidazole], the DBH inhibition at DBH [2] came to 8.4%.

Take `Sc1ncc(CCc2ccccc2)[nH]1` [5-(2-Phenylethyl)-2-mercaptoimidazole]: the 50% inhibitory concentration (IC50) on DBH [2] turned out to be 17 µM.

In the case of `O=C(O)c1ccc(CCC(Br)CBr)cn1` (centres unmarked) [5-(3,4-dibromobutyl)picolinic acid], on DBH [1], the “DBH inhibition (in words)” value was “DBH inhibitors”.

With `Oc1ccc(CCCc2cnc(S)[nH]2)cc1` [5-(3-(4-Hydroxyphenyl)propyl)-2-mercaptoimidazole], the DBH inhibition on DBH [2] is given as 29%.

Turning to `COc1ccc(CCCc2cnc(S)[nH]2)cc1` [5-(3-(4-Methoxyphenyl)propyl)-2-mercaptoimidazole], the DBH inhibition on DBH [2] amounted to 39%.

Take `Sc1ncc(CCCc2ccccc2)[nH]1` [5-(3-Phenylpropyl)-2-mercaptoimidazole]: the IC50 at DBH [2] came out at 10 µM.

As to `Oc1ccc(CCCCc2cnc(S)[nH]2)cc1` [5-(4-(4-Hydroxyphenyl)butyl)-2-mercaptoimidazole], the DBH inhibition at DBH [2] is given as 24%.

Take `COc1ccc(CCCCc2cnc(S)[nH]2)cc1` [5-(4-(4-Methoxyphenyl)butyl)-2-mercaptoimidazole]: the IC50 on DBH [2] is 100 µM.

As for `Sc1ncc(-c2ccc(Cl)cc2)[nH]1` [5-(4-Chlorophenyl)-2-mercaptoimidazole], the IC50 at DBH [2] was 100 µM.

Take `COc1ccc(Cc2cnc(S)[nH]2)cc1` [5-(4-Methoxybenzyl)-2-mercaptoimidazole]: the DBH inhibition at DBH [2] came out at 36%.

In the case of `COc1ccc(-c2cnc(S)[nH]2)cc1` [5-(4-Methoxyphenyl)-2-mercaptoimidazole], the DBH inhibition at DBH [2] was found to be 38%.

Regarding `Sc1ncc(CCCCc2ccccc2)[nH]1` [5-(4-Phenylbutyl)-2-mercaptoimidazole], the IC50 at DBH [2] is 100 µM.

`CN(C)C(=S)SCc1ccc(C(=O)O)nc1` [5-(dimethyldithiocarbamoylmethyl)picolinic acid]: the “DBH inhibition (in words)” value at DBH [1] is “DBH inhibitors”.

Turning to `Sc1nc(-c2ccccc2)c[nH]1` [5-Phenyl-2-mercaptoimidazole], the IC50 on DBH [2] amounted to 5500 µM.

For the compound `Sc1ncc(Cc2ccccc2)[nH]1` [5-benzyl-2-mercaptoimidazole], in series [3] (indwelling cannulae in tail arteries), the “time to significant blood pressure reductions vs vehicle-treated controls” value was at most 30 min. In series [3] (monitored for 260 minutes), the “maximal blood pressure reduction” value is reported as “approximately 25 mmHg” and the “time of lowest blood pressure” value was “exhibited their lowest blood pressures when monitoring was discontinued”.

Turning to `NOCc1ccccc1` [Benzyloxyamine], the “DBH inhibition (in words)” value at DBH [1] was “apparently act as competitive inhibitors”.

`CCCCc1ccc(C(N)=O)nc1` [Bupicomide, 5-(n-butyl)picolinamine]: on DBH [1], the “DBH inhibition (in words)” value is listed as “DBH inhibitor”. For the same compound, the “antihypertensive or vasodilator activity” value in series [4] was “has antihypertensive activity”.

Regarding `NCCc1ccc(O)c(O)c1` [DA, dopamine], the “antihypertensive or vasodilator activity” value in series [4] was “selective vasodilator activity at certain concentrations”.

With `CCCCc1ccc(C(=O)O)nc1` [Fusaric acid], the hepatotoxicity result in series [5] was “hepatotoxic”.

As to `NNCc1ccccc1` [benzylhydrazine], the “DBH inhibition (in words)” value at DBH [1] is reported as “apparently act as competitive inhibitors”.

With phenylpicolinic acid, at DBH [1] (Runti et al.), the “DBH inhibitory activity relative to fusaric acid” value is reported as “twice the inhibitory activity of fusaric acid”.
